Measured values reported in the supplement of paper PMC10307832.

Tests used:
Assay in all cases: relative viability (nuclei count vs DMSO), 5 days (fraction); higher = more cells survive
[1] = compound: CCN1CCC(CC1)N2C=C(N=N2)CNC3=CC4=C(C(=CN=C4C(=C3)Cl)C#N)NC5=CC(=C(C=C5)F)Cl [KIN001-266] + COc1cc2c(Oc3ccc(NC(=O)C4(C(=O)Nc5ccc(F)cc5)CC4)cc3F)ccnc2cc1OCCCN1CCOCC1 [Foretinib] (partner 0.25 µM)
How it was run: (§1)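 Dosing by pin tool came one day after lung cancer cell lines were seeded in 1536-well plates, using either one drug or a fixed anchor-drug dose plus five library-drug doses (not always all listed) in √10 steps. After 5 days, nuclei were counted on 4× images. Relative viability is treated-well nuclei count divided by vehicle-well nuclei count, and values are medians of duplicate plates.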

[2] = compound: CCN1CCC(CC1)N2C=C(N=N2)CNC3=CC4=C(C(=CN=C4C(=C3)Cl)C#N)NC5=CC(=C(C=C5)F)Cl [KIN001-266] + C[C@]1(O)C[C@@H](c2nc(-c3ccc4ccc(-c5ccccc5)nc4c3)c3c(N)nccn32)C1 [Linsitinib] (partner 1 µM)
How it was run: as §1

[3] = compound: CCN1CCC(CC1)N2C=C(N=N2)CNC3=CC4=C(C(=CN=C4C(=C3)Cl)C#N)NC5=CC(=C(C=C5)F)Cl [KIN001-266] + CC1(C)CCC(c2ccc(Cl)cc2)=C(CN2CCN(c3ccc(C(=O)NS(=O)(=O)c4ccc(N[C@H](CCN5CCOCC5)CSc5ccccc5)c(S(=O)(=O)C(F)(F)F)c4)cc3)CC2)C1 [Navitoclax] (partner 0.5 µM)
How it was run: as §1

[4] = compound: CCN1CCC(CC1)N2C=C(N=N2)CNC3=CC4=C(C(=CN=C4C(=C3)Cl)C#N)NC5=CC(=C(C=C5)F)Cl [KIN001-266] + CCNC(=O)c1noc(-c2cc(C(C)C)c(O)cc2O)c1-c1ccc(CN2CCOCC2)cc1 [Luminespib] (partner 0.01 µM)
How it was run: as §1

| Cell Line | relative viability ([1]; first compound 0.08 µM) | relative viability ([1]; first compound 0.253 µM) | relative viability ([1]; first compound 0.8 µM) | relative viability ([1]; first compound 2.53 µM) | relative viability ([1]; first compound 8 µM) | relative viability ([2]; first compound 0.08 µM) | relative viability ([2]; first compound 0.253 µM) | relative viability ([2]; first compound 2.53 µM) | relative viability ([2]; first compound 8 µM) | relative viability ([3]; first compound 0.08 µM) | relative viability ([3]; first compound 0.253 µM) | relative viability ([3]; first compound 2.53 µM) | relative viability ([3]; first compound 8 µM) | relative viability ([4]; first compound 0.08 µM) | relative viability ([4]; first compound 0.253 µM) | relative viability ([4]; first compound 0.8 µM) | relative viability ([4]; first compound 2.53 µM) | relative viability ([4]; first compound 8 µM) | relative viability ([2]; first compound 0.8 µM) | relative viability ([3]; first compound 0.8 µM) |
| --- | --- | --- | --- | --- | --- | --- | --- | --- | --- | --- | --- | --- | --- | --- | --- | --- | --- | --- | --- | --- |
| HCC-827 | 1.04 | 1.09 | 0.944 | 0.907 | 0.809 | 0.952 | 1.03 | 0.945 | 0.841 | 1.02 | 1.08 | 0.971 | 0.981 | 0.659 | 0.38 | 0.509 | 0.841 | 0.362 | – | – |
| HOP-62 | 0.96 | 1.11 | 1.15 | 1.13 | 1.13 | 0.961 | 1.01 | 0.945 | 0.439 | 1.11 | 1.02 | 1.05 | 0.95 | 0.906 | 0.923 | 0.876 | 0.944 | 0.787 | 1.09 | 1.06 |
| LC-2-ad | 0.964 | 1 | 0.904 | 0.972 | 0.787 | 0.879 | 0.842 | 0.808 | 0.873 | 0.763 | 0.429 | 0.415 | 0.479 | 0.943 | 1.19 | 1.13 | 1.06 | 0.931 | 0.924 | 0.473 |
| LCLC-97TM1 | 0.983 | 0.914 | 0.903 | 0.888 | 0.909 | 0.226 | 0.197 | 0.176 | 0.192 | 0.506 | 0.365 | 0.398 | 0.333 | 0.953 | 0.77 | 0.643 | 0.603 | 0.24 | 0.18 | 0.247 |
| LK-2 | 1.12 | 1.31 | 1.2 | 1.03 | 1.28 | 0.583 | 0.603 | 0.516 | 0.655 | 0.956 | 0.917 | 0.844 | 1.13 | 0.204 | 0.16 | 0.191 | 0.187 | 0.168 | 0.64 | 1.11 |
| LOU-NH91 | 0.943 | 0.924 | 0.623 | 0.804 | 0.724 | 0.968 | 0.952 | 0.896 | 0.73 | 0.761 | 0.646 | 0.609 | 0.55 | 0.35 | 0.312 | 0.286 | 0.337 | 0.391 | 0.652 | 0.47 |
| LU99A | 0.84 | 0.842 | 0.754 | 0.735 | 0.535 | 0.635 | 0.564 | 0.401 | 0.467 | 0.917 | 0.749 | 0.752 | 0.569 | 0.265 | 0.216 | 0.217 | 0.243 | 0.228 | 0.496 | 0.735 |
| LXF-289 | 0.936 | 0.945 | 0.963 | 0.997 | 1.07 | 0.931 | 0.945 | 0.968 | 0.935 | 0.957 | 0.952 | 0.952 | 0.925 | 0.633 | 0.72 | 0.72 | 0.705 | 0.794 | 0.878 | 0.929 |
| NCI-H23 | 0.924 | 0.83 | 0.975 | 0.995 | 0.862 | 0.626 | 0.604 | 0.691 | 0.55 | 0.835 | 0.876 | 0.962 | 0.719 | 0.201 | 0.185 | 0.182 | 0.239 | 0.226 | 0.591 | 0.762 |
| NCI-H322M | 0.942 | 0.96 | 1.03 | 0.962 | 0.864 | 0.957 | 0.987 | 0.855 | 0.83 | 1.19 | 1.3 | 1.05 | 1.18 | 0.86 | 0.576 | 1.05 | 0.83 | 0.926 | 0.897 | 1.24 |
| NCI-H441 | 1.04 | 0.889 | 1.02 | 0.781 | 0.689 | 0.7 | 0.454 | 0.565 | 0.59 | 0.688 | 0.635 | 0.623 | 0.531 | 0.32 | 0.354 | 0.328 | 0.286 | 0.302 | 0.456 | 0.483 |
| NCI-H460 | 1.01 | 0.973 | 1.02 | 0.936 | 0.941 | 0.673 | 0.853 | 0.762 | 0.539 | 1.16 | 1.2 | 1.03 | 1.07 | 0.0348 | 0.0385 | 0.0335 | 0.0269 | 0.0404 | 0.899 | 1.15 |
| NCI-H520 | 0.67 | 0.668 | 0.69 | 0.487 | 0.638 | 1.01 | 0.969 | 0.769 | 0.894 | 1.11 | 1.05 | 0.926 | 0.967 | 0.246 | 0.289 | 0.228 | 0.192 | 0.22 | 1.06 | 1.16 |
| NCI-H596 | 0.963 | 0.986 | 0.901 | 0.775 | 0.737 | 1.08 | 1.14 | 1.07 | 0.812 | 1.02 | 0.857 | 1 | 0.785 | 0.922 | 1.03 | 1.08 | 1.03 | 0.905 | 1.06 | 0.92 |
| NCI-H647 | 1.22 | 1.22 | 1.36 | 1.16 | 0.97 | 1.31 | 1.03 | 1.13 | 1.03 | 1.07 | 1.28 | 1.15 | 1.13 | 0.162 | 0.138 | 0.419 | 0.179 | 0.153 | 1.26 | 1.19 |
| NCI-H727 | 0.883 | 0.855 | 0.821 | 0.888 | 0.649 | 0.296 | 0.283 | 0.284 | 0.333 | 0.337 | 0.557 | 0.577 | 0.183 | 0.359 | 0.316 | 0.346 | 0.246 | 0.514 | 0.237 | 0.484 |
| NCI-H838 | 1.03 | 1.09 | 1.06 | 0.928 | 0.717 | 0.979 | 1.04 | 0.936 | 0.59 | 1.09 | 1.19 | 1.08 | 0.867 | 0.27 | 0.284 | 0.328 | 0.2 | 0.186 | 1.01 | 1.22 |
| NCI-H1355 | 0.922 | 0.956 | 0.924 | 0.918 | 0.88 | 0.814 | 0.803 | 0.779 | 0.742 | 0.981 | 0.955 | 0.873 | 0.812 | 0.741 | 0.642 | 0.811 | 0.691 | 0.722 | 0.905 | 0.963 |
| NCI-H1395 | 0.984 | 0.93 | 0.952 | 0.939 | 0.914 | 1.06 | 1.02 | 1.11 | 0.949 | 1.15 | 1.26 | 1.1 | 0.938 | 0.829 | 0.76 | 0.619 | 0.545 | 0.659 | 1.19 | 1.25 |
| NCI-H1437 | 1.21 | 1.28 | 1.26 | 1.35 | 1.04 | 1.07 | 1 | 1.03 | 0.583 | 1.09 | 1.11 | 1.12 | 0.911 | 1.08 | 1.13 | 1.1 | 1.09 | 0.854 | 1.03 | 1.08 |
| NCI-H1651 | 0.805 | 0.71 | 0.774 | 0.757 | 0.731 | 1.08 | 1.02 | 0.998 | 0.861 | 0.954 | 1.04 | 0.949 | 1.05 | 0.845 | 0.936 | 0.753 | 0.861 | 0.593 | 0.948 | 1.1 |
| NCI-H1666 | 0.954 | 0.95 | 0.938 | 0.92 | 0.892 | 1.02 | 0.861 | 0.825 | 0.674 | 1.06 | 0.983 | 0.91 | 0.847 | 0.982 | 0.993 | 1.02 | 0.951 | 0.923 | 0.869 | 0.852 |
| NCI-H1734 | 0.951 | 0.801 | 0.704 | 0.813 | 0.798 | 0.812 | 0.876 | 0.848 | 0.856 | 0.789 | 0.839 | 0.808 | 0.61 | 0.196 | 0.195 | 0.191 | 0.19 | 0.193 | 0.735 | 0.612 |
| NCI-H1755 | 0.96 | 0.913 | 0.894 | 0.862 | 0.83 | 1 | 0.973 | 0.955 | 0.844 | 1.01 | 0.985 | 0.992 | 0.799 | 0.339 | 0.799 | 0.389 | 0.445 | 0.418 | 0.965 | 0.981 |
| NCI-H1793 | 0.598 | 0.812 | 0.718 | 0.883 | 0.705 | 0.806 | 0.829 | 0.879 | 1.03 | 0.516 | 0.491 | 0.388 | 0.429 | 0.231 | 0.436 | 0.171 | 0.194 | 0.196 | 0.75 | 0.401 |
| NCI-H1915 | 1.14 | 1.06 | 1.07 | 1.13 | 1.11 | 1.1 | 1.1 | 1.06 | 0.998 | 0.766 | 0.79 | 0.758 | 0.742 | 0.827 | 0.684 | 0.791 | 0.79 | 0.783 | 1.1 | 0.74 |
